In patent US7262206B2, “Cycloalkyl—containing 5-acylindolinones, the preparation thereof and their use as medicaments” (Boehringer Ingelheim International GmbH, priority 2004, dated 2007):

Experiments:
rats = experiment: Tolerability after oral administration to rats (behaviour); assay type: in vivo; details: oral administration of 10 mg/kg
db/db mice = experiment: Oral glucose tolerance test; assay type: in vivo; details: fasted db/db mice, 2 g/kg oral glucose 30 minutes after substance
Procedure: Oral Glucose Tolerance Test
Fasted db/db mice 7 to 9 weeks old (Janvier, France) are weighed and blood is taken from the tip of the tail. This blood is used for the first measurement of glucose on the basis of which the animals are randomised and divided into groups. The test substance to be tested may be given either orally or i.p. as a suspension in 0.5% Natrosol. 30 minutes after the administration of the substance the animals are given orally 2 g/kg glucose in a volume of 0.1 ml/100 g body weight dissolved in NaCl solution. Subsequently, the glucose values are determined from the tail blood using a glucometer (Ultra OneTouch, Lifescan) at specific time intervals [30, 60, 120 and 180 minutes after oral administration of the glucose].

CC(=O)c1ccc2c(c1)/C(=C(/NC1CCN(C)CC1)c1ccc3c(c1)OCO3)C(=O)N2 [Example 1, 5-Acetyl-3-[(benzo[1,3]dioxol-5-yl)-(1-methyl-piperidin-4-ylamino)-methylidene]-2-indolinone]
changes in the animals' behaviour (rats): no changes were observed in the animals' behaviour | activity in the oral glucose tolerance test (db/db mice): significant activity
